Patent US12648979B2, “Compositions comprising sulforaphane or a sulforaphane precursor and Moringa plant components” (Nutramax Laboratories, Inc., priority 2021, dated 2026)

Assays:
[1] = system: myrosinase; test: Equimolar conversion of glucoraphanin to sulforaphane by myrosinase, HPLC (Example 4); type: biochemical, broccoli
Experimental: A two-part experiment was conducted to further elucidate the role of ascorbic acid in modulating myrosinase activity. All solutions were prepared in 20 mM Tris-buffered saline, at pH 7.5, previously identified as an optimal for myrosinase activity; each sample tube had 100 mg of freeze-dried broccoli powder accurately weighed in as a source of myrosinase. Experiment was conducted at 38° C. for 2 hours, with sample aliquots removed in 30-minute increments, and both glucoraphanin and sulforaphane content assessed by HPLC. […] A control sample contained no ascorbic acid, and the enzymatic conversion proceeded unassisted by a co-factor. PART 1. In the presence of the fixed concentration of ascorbic acid, 1 mmol/Liter, an increasing amount of broccoli seed extract (about 12% glucoraphanin, w/w) was added, ranging from 250 mg to 500 mg. PART 2. While keeping the amount of broccoli seed extract fixed at 250 mg, the concentration of ascorbic acid was varied from 0.4 mmol/Liter to 3.8 mmol/Liter.

[2] = system: broccoli sprout-derived myrosinase; test: Consumption of glucoraphanin by myrosinase as a function of ascorbic acid concentration (Example 3); type: biochemical
Experimental: A […] Interaction Chromatographic (HILIC) method was developed, comprising the following conditions: • Column: Waters BEH Amide, 1.7-μm particle size; 2.1 mm×100 mm; • Mobile Phase: 20% 10 mM Ammonium Acetate, pH 5.0; 80% acetonitrile; • Separation mode: isocratic; • Column Temperature: 70° C.; • Flow Rate: 0.7 mL/min.
About 250 mg of broccoli seed extract containing about 12% (w/w) glucoraphanin were subjected to hydrolysis by a fixed concentration of broccoli sprout-derived myrosinase in the presence of variable concentration of ascorbic acid, ranging from 0 to 600 μmoles/Liter. The reaction mixtures were thermostated at 38° C.; aliquots were withdrawn every 15 minutes for 60 minutes, and concentration of glucoraphanin determined chromatographically. The rate of glucoraphanin consumption was interpreted as the rate its conversion to sulforaphane. Graphical representation of glucoraphanin content reduction as a function of increasing ascorbic acid concentration results in a series of linear plots; the slopes of the linear regression lines reflect the rate of glucoraphanin consumption, in pmoles/minute. It is apparent that in the presence of 600 μmoles/Liter concentration of ascorbic acid, the reaction rate increased 13-fold relative to that which proceeded in the absence of modulatory effects of ascorbic acid.

[3] = GR 250 mg AA 0.0 mM (control), 0 min
[4] = GR 250 mg AA 0.0 mM (control), 30 min
[5] = GR 250 mg AA 0.0 mM (control), 60 min
[6] = GR 250 mg AA 0.0 mM (control), 90 min
[7] = GR 250 mg AA 0.0 mM (control), 120 min
[8] = PART 1, GR 250 mg AA 1.0 mM, 0 min
[9] = PART 2, GR 250 mg AA 1.0 mM, 0 min

## C[S+]([O-])CCCC/C(=N\OS(=O)(=O)O)S[C@@H]1O[C@H](CO)[C@@H](O)[C@H](O)[C@H]1O (some centres unmarked) [GR, 4-methylsulfinylbutyl glucosinolate]
[1]; [3]
  Glucoraphanin: 58.02 µmol
  Sulforaphane: 3.42 µmol
[1]; [4]
  Glucoraphanin: 48.57 µmol
  Sulforaphane: 12.08 µmol
[1]; [5]
  Glucoraphanin: 37.52 µmol
  Sulforaphane: 22.27 µmol
[1]; [6]
  Glucoraphanin: 28.58 µmol
  Sulforaphane: 33.17 µmol
[1]; [7]
  Glucoraphanin: 15.67 µmol
  Sulforaphane: 42.89 µmol
[1]; GR 250 mg AA 0.4 mM, 0 min
  Glucoraphanin: 45.66 µmol
  Sulforaphane: 15.96 µmol
[1]; GR 250 mg AA 0.4 mM, 30 min
  Sulforaphane: 62.06 µmol
[1]; GR 250 mg AA 0.4 mM, 60 min
  Sulforaphane: 61.01 µmol
[1]; GR 250 mg AA 0.4 mM, 90 min
  Sulforaphane: 60.88 µmol
[1]; GR 250 mg AA 0.4 mM, 120 min
  Sulforaphane: 56.90 µmol
[1]; GR 250 mg AA 2.0 mM, 0 min
  Glucoraphanin: 24.94 µmol
  Sulforaphane: 36.05 µmol
[1]; GR 250 mg AA 2.0 mM, 30 min
  Sulforaphane: 60.85 µmol
[1]; GR 250 mg AA 2.0 mM, 60 min
  Sulforaphane: 59.78 µmol
[1]; GR 250 mg AA 2.0 mM, 90 min
  Sulforaphane: 59.85 µmol
[1]; GR 250 mg AA 2.0 mM, 120 min
  Sulforaphane: 58.08 µmol
[1]; GR 250 mg AA 2.9 mM, 0 min
  Glucoraphanin: 22.24 µmol
  Sulforaphane: 38.20 µmol
[1]; GR 250 mg AA 2.9 mM, 30 min
  Sulforaphane: 59.95 µmol
[1]; GR 250 mg AA 2.9 mM, 60 min
  Sulforaphane: 59.34 µmol
[1]; GR 250 mg AA 2.9 mM, 90 min
  Sulforaphane: 58.77 µmol
[1]; GR 250 mg AA 2.9 mM, 120 min
  Sulforaphane: 56.99 µmol
[1]; GR 250 mg AA 3.8 mM, 0 min
  Glucoraphanin: 21.70 µmol
  Sulforaphane: 37.87 µmol
[1]; GR 250 mg AA 3.8 mM, 30 min
  Sulforaphane: 58.77 µmol
[1]; GR 250 mg AA 3.8 mM, 60 min
  Sulforaphane: 57.79 µmol
[1]; GR 250 mg AA 3.8 mM, 90 min
  Sulforaphane: 58.41 µmol
[1]; GR 250 mg AA 3.8 mM, 120 min
  Sulforaphane: 56.17 µmol
[1]; GR 300 mg AA 1.0 mM, 0 min
  Glucoraphanin: 49.31 µmol
  Sulforaphane: 24.18 µmol
[1]; GR 300 mg AA 1.0 mM, 30 min
  Sulforaphane: 74.40 µmol
[1]; GR 300 mg AA 1.0 mM, 60 min
  Sulforaphane: 73.04 µmol
[1]; GR 300 mg AA 1.0 mM, 90 min
  Sulforaphane: 72.19 µmol
[1]; GR 300 mg AA 1.0 mM, 120 min
  Sulforaphane: 70.56 µmol
[1]; GR 350 mg AA 1.0 mM, 0 min
  Glucoraphanin: 61.41 µmol
  Sulforaphane: 25.00 µmol
[1]; GR 350 mg AA 1.0 mM, 30 min
  Sulforaphane: 84.92 µmol
[1]; GR 350 mg AA 1.0 mM, 60 min
  Sulforaphane: 84.02 µmol
[1]; GR 350 mg AA 1.0 mM, 90 min
  Sulforaphane: 83.19 µmol
[1]; GR 350 mg AA 1.0 mM, 120 min
  Sulforaphane: 80.02 µmol
[1]; GR 400 mg AA 1.0 mM, 0 min
  Glucoraphanin: 71.35 µmol
  Sulforaphane: 26.71 µmol
[1]; GR 400 mg AA 1.0 mM, 30 min
  Glucoraphanin: 1.56 µmol
  Sulforaphane: 96.60 µmol
[1]; GR 400 mg AA 1.0 mM, 60 min
  Sulforaphane: 95.38 µmol
[1]; GR 400 mg AA 1.0 mM, 90 min
  Sulforaphane: 93.39 µmol
[1]; GR 400 mg AA 1.0 mM, 120 min
  Sulforaphane: 91.16 µmol
[1]; GR 500 mg AA 1.0 mM, 0 min
  Glucoraphanin: 89.41 µmol
  Sulforaphane: 33.52 µmol
[1]; GR 500 mg AA 1.0 mM, 30 min
  Glucoraphanin: 1.01 µmol
  Sulforaphane: 120.16 µmol
[1]; GR 500 mg AA 1.0 mM, 60 min
  Sulforaphane: 116.45 µmol
[1]; GR 500 mg AA 1.0 mM, 90 min
  Sulforaphane: 118.45 µmol
[1]; GR 500 mg AA 1.0 mM, 120 min
  Sulforaphane: 112.34 µmol
[1]; [8]
  Glucoraphanin: 40.07 µmol
  Sulforaphane: 21.51 µmol
[1]; PART 1, GR 250 mg AA 1.0 mM, 30 min
  Sulforaphane: 61.95 µmol
[1]; PART 1, GR 250 mg AA 1.0 mM, 60 min
  Sulforaphane: 60.20 µmol
[1]; PART 1, GR 250 mg AA 1.0 mM, 90 min
  Sulforaphane: 60.04 µmol
[1]; PART 1, GR 250 mg AA 1.0 mM, 120 min
  Sulforaphane: 58.25 µmol
[1]; [9]
  Glucoraphanin: 35.24 µmol
  Sulforaphane: 26.49 µmol
[1]; PART 2, GR 250 mg AA 1.0 mM, 30 min
  Sulforaphane: 62.19 µmol
[1]; PART 2, GR 250 mg AA 1.0 mM, 60 min
  Sulforaphane: 60.62 µmol
[1]; PART 2, GR 250 mg AA 1.0 mM, 90 min
  Sulforaphane: 60.41 µmol
[1]; PART 2, GR 250 mg AA 1.0 mM, 120 min
  Sulforaphane: 59.10 µmol
[1]; almost all the reaction mixtures
  time to complete conversion of glucoraphanin to sulforaphane: ≤ 30 min
[1]; control sample, without ascorbic acid
  stoichiometry of conversion of glucoraphanin to sulforaphane: equimolar conversion of glucoraphanin to sulforaphane
[2]; ascorbic acid 0 μM
  Slope (rate of glucoraphanin consumption): -0.09293 µmol/min
[2]; ascorbic acid 0 μM, 0 min
  Glucoraphanin content (μmoles GR): 93.36 µmol
[2]; ascorbic acid 0 μM, 15 min
  Glucoraphanin content (μmoles GR): 92.24 µmol
[2]; ascorbic acid 0 μM, 30 min
  Glucoraphanin content (μmoles GR): 90.71 µmol
[2]; ascorbic acid 0 μM, 45 min
  Glucoraphanin content (μmoles GR): 89.44 µmol
[2]; ascorbic acid 0 μM, 60 min
  Glucoraphanin content (μmoles GR): 87.79 µmol
[2]; ascorbic acid 50 μM
  Slope (rate of glucoraphanin consumption): -0.286 µmol/min
[2]; ascorbic acid 50 μM, 0 min
  Glucoraphanin content (μmoles GR): 93.36 µmol
[2]; ascorbic acid 50 μM, 15 min
  Glucoraphanin content (μmoles GR): 89.20 µmol
[2]; ascorbic acid 50 μM, 30 min
  Glucoraphanin content (μmoles GR): 84.24 µmol
[2]; ascorbic acid 50 μM, 45 min
  Glucoraphanin content (μmoles GR): 80.30 µmol
[2]; ascorbic acid 50 μM, 60 min
  Glucoraphanin content (μmoles GR): 76.36 µmol
[2]; ascorbic acid 125 μM
  Slope (rate of glucoraphanin consumption): -0.5622 µmol/min
[2]; ascorbic acid 125 μM, 0 min
  Glucoraphanin content (μmoles GR): 93.36 µmol
[2]; ascorbic acid 125 μM, 15 min
  Glucoraphanin content (μmoles GR): 84.52 µmol
[2]; ascorbic acid 125 μM, 30 min
  Glucoraphanin content (μmoles GR): 75.92 µmol
[2]; ascorbic acid 125 μM, 45 min
  Glucoraphanin content (μmoles GR): 68.09 µmol
[2]; ascorbic acid 125 μM, 60 min
  Glucoraphanin content (μmoles GR): 59.41 µmol
[2]; ascorbic acid 250 μM
  Slope (rate of glucoraphanin consumption): -0.7901 µmol/min
[2]; ascorbic acid 250 μM Filtered
  Slope (rate of glucoraphanin consumption): -0.4714 µmol/min
[2]; ascorbic acid 250 μM Filtered, 0 min
  Glucoraphanin content (μmoles GR): 93.36 µmol
[2]; ascorbic acid 250 μM Filtered, 15 min
  Glucoraphanin content (μmoles GR): 86.31 µmol
[2]; ascorbic acid 250 μM Filtered, 30 min
  Glucoraphanin content (μmoles GR): 79.44 µmol
[2]; ascorbic acid 250 μM Filtered, 45 min
  Glucoraphanin content (μmoles GR): 71.94 µmol
[2]; ascorbic acid 250 μM Filtered, 60 min
  Glucoraphanin content (μmoles GR): 65.18 µmol
[2]; ascorbic acid 250 μM, 0 min
  Glucoraphanin content (μmoles GR): 93.36 µmol
[2]; ascorbic acid 250 μM, 15 min
  Glucoraphanin content (μmoles GR): 80.95 µmol
[2]; ascorbic acid 250 μM, 30 min
  Glucoraphanin content (μmoles GR): 69.06 µmol
[2]; ascorbic acid 250 μM, 45 min
  Glucoraphanin content (μmoles GR): 57.63 µmol
[2]; ascorbic acid 250 μM, 60 min
  Glucoraphanin content (μmoles GR): 45.76 µmol
[2]; ascorbic acid 400 μM
  Slope (rate of glucoraphanin consumption): -1.007 µmol/min
[2]; ascorbic acid 400 μM, 0 min
  Glucoraphanin content (μmoles GR): 93.36 µmol
[2]; ascorbic acid 400 μM, 15 min
  Glucoraphanin content (μmoles GR): 78.32 µmol
[2]; ascorbic acid 400 μM, 30 min
  Glucoraphanin content (μmoles GR): 62.78 µmol
[2]; ascorbic acid 400 μM, 45 min
  Glucoraphanin content (μmoles GR): 47.67 µmol
[2]; ascorbic acid 400 μM, 60 min
  Glucoraphanin content (μmoles GR): 33.15 µmol
[2]; ascorbic acid 600 μM
  Slope (rate of glucoraphanin consumption): -1.2 µmol/min
[2]; ascorbic acid 600 μM, 0 min
  Glucoraphanin content (μmoles GR): 93.36 µmol
[2]; ascorbic acid 600 μM, 15 min
  Glucoraphanin content (μmoles GR): 75.02 µmol
[2]; ascorbic acid 600 μM, 30 min
  Glucoraphanin content (μmoles GR): 55.66 µmol
[2]; ascorbic acid 600 μM, 45 min
  Glucoraphanin content (μmoles GR): 37.50 µmol
[2]; ascorbic acid 600 μM, 60 min
  Glucoraphanin content (μmoles GR): 22.09 µmol
